Test results as given in patent US12552783B2, “Modulators of proteolysis and associated methods of use” (Arvinas Operations, Inc., priority 2018, dated 2026).

Columns and labels:
KRas [1] = target: T1, KRas (Homo sapiens, UniProt P01116, G12C); assay: KRas degradation in SW1573 cells by Western blot, normalized to GAPDH (data of Table 14); assay type: cell-based; details: SW1573 cells
Protocol: Cell Lines, Antibodies, and Reagents. NCI-H2030 (CRL-5914) and SW1573 (CRL-2170) cells were purchased from ATCC. Both cell lines are homozygous for the G12C mutation in KRas. NCI-H2030 cells were cultured in RPMI-1640 medium containing 1% penicillin-streptomycin and 10% fetal bovine serum (FBS). SW1573 cells were cultured in DMEM containing 1% penicillin-streptomycin and 10% FBS. The KRas detection antibody (Cat. No. LS-C175665) was purchased from LifeSpan Biosciences and was used at a dilution of 1:2000. GAPDH was detected using an antibody purchased from Cell Signaling Technology (Cat. No. 5174) and was diluted 1:3000. Secondary anti-mouse and anti-rabbit detection antibodies were purchased from Cell Signaling Technology (Cat. Nos. 7076 and 7074, respectively).
Compound Treatment and Western Blotting of the Data of Table 14. Either NCI-H2030 or SW1573 cells were plated in 12-well plates and allowed to adhere overnight at 37° C. in an incubator containing 5% CO2. The following day, the medium was replaced with the appropriate medium lacking FBS to induce starvation. Cells were returned to the incubator for an additional 24 hours following media exchange. […] Cells were treated with VHL-based compounds for 24 hours and all other compounds for 72 hours. Following treatment, cells were lysed in RIPA buffer (Thermo Fisher Cat. No. 89900) containing phosphatase (Thermo Fisher Cat. No. 1861277) and protease (Thermo Fisher Cat. No. 78429) inhibitor cocktails. Lysates were cleared at 13,000 rpm for 15 minutes and supernatants were assayed for total protein concentration using the Pierce BCA assay system (Thermo Fisher Cat. No. 23225). For each sample, 10 μg total protein was resolved on a 12% Bis-Tris gel and then transferred to a nitrocellulose membrane. After blocking in 3% BSA in TBST (Tris-buffered Saline with 0.1% Tween-20) for 1 hour at room temperature, membranes were probed with the primary antibody (LS Bio Cat. No. LS-C175665) overnight at 4° C. After incubation with the secondary antibody, the following day membranes were visualized using the SuperSignal™ West Femto substrate (Thermo Fisher Cat. No. 34095). The KRas signal in each lane was normalized to GAPDH and percent degradation was either estimated as less than 25% by visual inspection (C in Table 13) or quantitated relative to the DMSO control lane using BIO-RAD Image Lab 5.2.1, and all data was plotted using GraphPad PRISM 6.07.
DC50 is the half-maximal degradation concentration—i.e., the concentration at which 50% degradation is observed. DMax is the maximum degradation efficacy is achieved—i.e., the maximal degradation observed) degradation data.

KRas [2] = target: T1, KRas; assay: KRas degradation in NCI-H2030 cells by Western blot, normalized to GAPDH (data of Table 14); assay type: cell-based; design: host or cells: NCI-H2030; details: for Percent Degradation at Indicated Concentration (μM): H2030; for Dmax: NCI-H2030
Method in brief: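 After a day without serum, the G12C-homozygous cells received each compound at 0.3, 1 and 3 μM, with VHL-based degraders left for 24 h and other compounds for 72 h. DC50 is the concentration giving half-maximal degradation and DMax the maximal degradation, both taken from KRas levels normalized to GAPDH.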

Percent Degradation at Indicated Concentration (μM) (KRas [1]; 0.03 μM)	Percent Degradation at Indicated Concentration (μM) (KRas [1]; 0.1 μM)	Percent Degradation at Indicated Concentration (μM) (KRas [1]; 0.3 μM)	Percent Degradation at Indicated Concentration (μM) (KRas [1]; 1 μM)	Percent Degradation at Indicated Concentration (μM) (KRas [1]; 3 μM)	Percent Degradation at Indicated Concentration (μM) (KRas [2]; 0.3 μM)	Percent Degradation at Indicated Concentration (μM) (KRas [2]; 1 μM)	Percent Degradation at Indicated Concentration (μM) (KRas [2]; 3 μM)	Dmax (KRas [2])	Compound
C (Percent Degradation: C ≤ 35)	C (Percent Degradation: C ≤ 35)	C (Percent Degradation: C ≤ 35)							C=CC(=O)N1CCN(c2nc(O[C@H](C)CN3CCC(OCCOCCOCCOCCOCCOc4cc(C(C(=O)N5C[C@H](O)C[C@H]5C(=O)N[C@@H](C)c5ccc(-c6scnc6C)cc5)C(C)C)on4)CC3)nc3c(F)c(-c4cc(O)cc5ccccc45)c(Cl)cc23)CC1 (stereo in doubt) [compound 532, (2S,4R)-1-((2R)-2-(3-((14-((1-((2R)-2-((4-(4-acryloylpiperazin-1-yl)-6-chloro-8-fluoro-7-(3-hydroxynaphthalen-1-yl)quinazolin-2-yl)oxy)propyl)piperidin-4-yl)oxy)-3,6,9,12-tetraoxatetradecyl)oxy)isoxazol-5-yl)-3-methylbutanoyl)-4-hydroxy-N-((S)-1-(4-(4-methylthiazol-5-yl)phenyl)ethyl)pyrrolidine-2-carboxamide]
		C (Percent Degradation: C ≤ 35)	C (Percent Degradation: C ≤ 35)	C (Percent Degradation: C ≤ 35)					Cc1ncsc1-c1ccc([C@H](C)NC(=O)[C@@H]2C[C@@H](O)CN2C(=O)[C@@H](NC(=O)COCCOC2CCN(C[C@@H](C)Oc3nc(N4CCN(C(=O)C(O)O)CC4)c4cc(Cl)c(-c5cc(O)cc6ccccc56)c(F)c4n3)CC2)C(C)(C)C)cc1 [compound 244, (2S,4R)-1-((2S)-2-(2-(2-((1-((2R)-2-((6-chloro-4-(4-(2,2-dihydroxyacetyl)piperazin-1-yl)-8-fluoro-7-(3-hydroxynaphthalen-1-yl)quinazolin-2-yl)oxy)propyl)piperidin-4-yl)oxy)ethoxy)acetamido)-3,3-dimethylbutanoyl)-4-hydroxy-N-((S)-1-(4-(4-methylthiazol-5-yl)phenyl)ethyl)pyrrolidine-2-carboxamide]
	C (Percent Degradation: C ≤ 35)	C (Percent Degradation: C ≤ 35)	C (Percent Degradation: C ≤ 35)						Cc1ncsc1-c1ccc([C@H](C)NC(=O)[C@@H]2C[C@@H](O)CN2C(=O)[C@@H](NC(=O)COCCOCCOC2CCN(C[C@@H](C)Oc3nc(N4CCN(C(=O)C(O)O)CC4)c4cc(Cl)c(-c5cc(O)cc6ccccc56)c(F)c4n3)CC2)C(C)(C)C)cc1 [compound 245, (2S,4R)-1-((2S)-2-(2-(2-(2-((1-((2R)-2-((6-chloro-4-(4-(2,2-dihydroxyacetyl)piperazin-1-yl)-8-fluoro-7-(3-hydroxynaphthalen-1-yl)quinazolin-2-yl)oxy)propyl)piperidin-4-yl)oxy)ethoxy)ethoxy)acetamido)-3,3-dimethylbutanoyl)-4-hydroxy-N-((S)-1-(4-(4-methylthiazol-5-yl)phenyl)ethyl)pyrrolidine-2-carboxamide]
					C (Percent Degradation: C ≤ 35)	C (Percent Degradation: C ≤ 35)	C (Percent Degradation: C ≤ 35)	≤ 35%	C=CC(=O)N1CCN(c2nc(OC3CCN(CCOCCOCCOCCOCC(=O)N[C@H](C(=O)N4C[C@H](O)C[C@H]4C(=O)N[C@@H](C)c4ccc(-c5scnc5C)cc4)C(C)(C)C)CC3)nc3c(F)c(-c4cc(O)cc5ccccc45)c(Cl)cc23)CC1 [compound 474, (2S,4R)-1-((2S)-17-(4-((4-(4-acryloylpiperazin-1-yl)-6-chloro-8-fluoro-7-(3-hydroxynaphthalen-1-yl)quinazolin-2-yl)oxy)piperidin-1-yl)-2-(tert-butyl)-4-oxo-6,9,12,15-tetraoxa-3-azaheptadecanoyl)-4-hydroxy-N-((S)-1-(4-(4-methylthiazol-5-yl)phenyl)ethyl)pyrrolidine-2 carboxamide]
					C (Percent Degradation: C ≤ 35)	C (Percent Degradation: C ≤ 35)	C (Percent Degradation: C ≤ 35)	≤ 35%	C=CC(=O)N1CCN(c2nc(Nc3ccc(OCCOCCOCC(=O)N[C@H](C(=O)N4C[C@H](O)C[C@H]4C(=O)N[C@@H](C)c4ccc(-c5scnc5C)cc4)C(C)(C)C)cc3)nc3c(F)c(-c4cc(O)cc5ccccc45)c(Cl)cc23)CC1 [compound 482]
					C (Percent Degradation: C ≤ 35)	C (Percent Degradation: C ≤ 35)	C (Percent Degradation: C ≤ 35)	≤ 35%	C=CC(=O)N1CCN(c2nc(Nc3ccc(OCCOCCOCCOCC(=O)N[C@H](C(=O)N4C[C@H](O)C[C@H]4C(=O)N[C@@H](C)c4ccc(-c5scnc5C)cc4)C(C)(C)C)cc3)nc3c(F)c(-c4cc(O)cc5ccccc45)c(Cl)cc23)CC1 [compound 483, (2S,4R)-1-((2S)-14-(4-((4-(4-acryloylpiperazin-1-yl)-6-chloro-8-fluoro-7-(3-hydroxynaphthalen-1-yl)quinazolin-2-yl)amino)phenoxy)-2-(tert-butyl)-4-oxo-6,9,12-trioxa-3-azatetradecanoyl)-4-hydroxy-N-((S)-1-(4-(4-methylthiazol-5-yl)phenyl)ethyl)pyrrolidine-2-carboxamide]
					C (Percent Degradation: C ≤ 35)	C (Percent Degradation: C ≤ 35)	C (Percent Degradation: C ≤ 35)	≤ 35%	C=CC(=O)N1CCN(c2nc(Nc3ccc(OCCOCCOCCOCCOCC(=O)N[C@H](C(=O)N4C[C@H](O)C[C@H]4C(=O)N[C@@H](C)c4ccc(-c5scnc5C)cc4)C(C)(C)C)cc3)nc3c(F)c(-c4cc(O)cc5ccccc45)c(Cl)cc23)CC1 [compound 484]
					C (Percent Degradation: C ≤ 35)	C (Percent Degradation: C ≤ 35)	C (Percent Degradation: C ≤ 35)	≤ 35%	C=CC(=O)N1CCN(c2nc(OCCCN(C)CCOCCOCCOCCOCC(=O)N[C@H](C(=O)N3C[C@H](O)C[C@H]3C(=O)N[C@@H](C)c3ccc(-c4scnc4C)cc3)C(C)(C)C)nc3c(F)c(-c4cc(O)cc5ccccc45)c(Cl)cc23)CC1 [compound 497, (2S,4R)-1-((2S)-21-((4-(4-acryloylpiperazin-1-yl)-6-chloro-8-fluoro-7-(3-hydroxynaphthalen-1-yl)quinazolin-2-yl)oxy)-2-(tert-butyl)-18-methyl-4-oxo-6,9,12,15-tetraoxa-3,18-diazahenicosanoyl)-4-hydroxy-N-((S)-1-(4-(4-methylthiazol-5-yl)phenyl)ethyl)pyrrolidine-2 carboxamide]
